These results are taken from publication PMC10704561, “Multi-Photon-Sensitive Chromophore for the Photorelease of Biologically Active Phenols” (ACS Chemical Neuroscience, 2023).

Holding throughout (assay type): physicochemical
The nature of series [1]: Solubility in KMOPS buffer pH 7.2. The text has this:
The photochemical and photophysical properties were investigated in a simulated physiological buffer (KMOPS, pH 7.2) and compared with the literature data for CyHQ-O-DA (Table 1). […] For this derivative, 10% CH3CN in the buffer was used to ensure complete solubilization for the photochemistry experiments. The spontaneous hydrolysis in the dark was monitored over a period of 7 days and no significant hydrolysis was detected for any of the constructs. The molar absorptivity at the wavelength used for 1PE photolysis (ε365) ranged between 4800 and 5670 M^–1 cm^–1, in line with the values of most CyHQ-based PPGs.
The photochemical behavior of constructs 4–7c was investigated in KMOPS buffer at the concentration of 0.1 mM. Under these conditions, all compounds were soluble except for the VNA analogue 6c, which, because of the lipophilicity of the vanilloid, required 20% CH3CN for full solubilization. The stability toward hydrolysis in the dark was monitored over a week, and no significant decomposition was detected for any probe. All constructs were successfully photolyzed after light exposure, as shown in the time courses of the photolysis reactions (Figure 3). MeO-CyHQ constructs 4c, 6c, and 7c were photoactivated with excellent quantum efficiency and sensitivities, and good chemical yields were obtained by monitoring the appearance of the released bioeffector over the time course of the photoreaction (Table 1). […] We believe this effect is due to the presence of the thiophene ring, a well-known photoactive group,[51] which could act as an energy sink in the excited state and quench the photochemical reaction.

The nature of series [2]: Spontaneous hydrolysis in the dark. The settings on record: 0.1 mM in KMOPS pH 7.2, dark, 7 days. On the procedure: A 0.1 mM solution of each compound was prepared in KMOPS buffer. For compounds 3d and 6c, 20% CH3CN was used as a cosolvent. The solutions were kept in the dark for 7 days, and the percentage of the starting materials was determined by periodic HPLC analysis (Supporting Information, HPLC Data).

The nature of series [3]: One-photon excitation (1PE) photolysis with 365 nm LED, HPLC quantification. Conditions: for t90% (time required to consume 90% of the starting material): 1PE 365 nm LED, lamp intensity differs per compound (Table S1). Here is the method:
A 0.1 mM solution (3 mL) of each protected phenol in KMOPS buffer (10 or 20% CH3CN was used as a cosolvent for 3d and 6c) was placed in a 3 mL quartz cuvette along with a stirring bar. The solution was irradiated with stirring using a 365 nm LED lamp (Cairn OptoLED Lite). At different time intervals, 80 μL aliquots of the solution were taken out and analyzed by uHPLC (Agilent 1290 Infinity series), monitoring the AUC at 320 nm (Supporting Information, HPLC Data). An external standard calibration method of quantification was used for the calibration of the samples. The experiments were repeated in sets of three. A gradient elution with a flux rate of 0.3 mL/min using a mobile phase comprising A = 0.1% trifluoroacetic acid in water and B = acetonitrile (starting from 5% B to 100% over 10 min and re-equilibrating to 5% B before the next run) was used for the separations. A comparison of the AUC with the calibration curves of the substrates (obtained from known concentration) determined the percentages of the remaining starting materials. The percentages of the remaining starting materials were plotted versus time. The time to 90% of decomposition of the substrate (t90% values) was obtained by fitting a single exponential decay curve to the data using DeltaGraph (Red Rock Software). The following equation was used to calculate the quantum yield (Φu) of each photolysis reaction:[42],[47],[56],[57] Φu = (I σ t90%)^−1, where I is the irradiation intensity (determined by potassium ferrioxalate actinometry and measured in Einstein cm^–2 s^–1),[58] σ is the decadic extinction coefficient (1000 × ε) at 365 nm, and t90% is the time required to consume 90% of the starting material. See Supporting Information Table S1 for the I, σ, and t90% data.

Series [4] can be described thus: UV-vis spectra and molar extinction coefficient in KMOPS buffer. Conditions: 0.1 mM in KMOPS buffer, pH 7.2 (3d, 6c: 10 or 20% CH3CN added). On the procedure: A 100 μM solution of each protected phenol was prepared in KMOPS buffer (20% CH3CN was used as a cosolvent for compounds 3d and 6c). The UV–vis spectra of these solutions were recorded at between 250 and 500 nm. All of the measurements were repeated in triplicate, and the absorbance values were averaged. The Beer–Lambert law, ε = A(cl)^−1, was used for the calculation of ε values at λ = 365 nm, where A is the absorbance value measured at 365 nm, c is the concentration of the sample, and l is the cuvette length (1 cm). See the Supporting Information for the spectra.

Read-outs that look alike come from different tables or passages of the source.

One may read the solubility as the dissolved amount per volume that the medium holds. Regarding `Cc1cc(COc2cc(CCN)ccc2O)nc2c(C#N)c(O)ccc12.O=C(O)C(F)(F)F` [3a, 2-(3-((8-Cyano-7-hydroxy-4-methylquinolin-2-yl)methoxy)-4-hydroxyphenyl)ethan-1-aminium 2,2,2-trifluoroacetate], the solubility in series [1] (aqueous buffer, KMOPS buffer, pH 7.2, read-out: solubility) is above 100 µM. For the same compound, the “τd (time constant of spontaneous hydrolysis in buffer in the dark at room temperature)” value in series [2] is “nh (No hydrolysis (<5% detected after 7 days))”. The “t90% (time required to consume 90% of the starting material)” value in series [3] was found to be 28.0 s. In series [4], this compound yielded a ε365 of 5000 M^–1 cm^–1 and a λmax of 365 nm.

Take `N#Cc1c(O)ccc2c(N3CCOCC3)cc(COc3cc(CCN)ccc3O)nc12.O=C(O)C(F)(F)F` [3b, 2-(3-((8-Cyano-7-hydroxy-4-morpholinoquinolin-2-yl)methoxy)-4-hydroxyphenyl)ethan-1-aminium 2,2,2-trifluoroacetate]: the solubility in series [1] (pH 7.2, aqueous buffer) was above 100 µM. In series [2], the “τd (time constant of spontaneous hydrolysis in buffer in the dark at room temperature)” value was “nh (No hydrolysis (<5% detected after 7 days))”. In addition, the “t90% (time required to consume 90% of the starting material)” value in series [3] turned out to be 23.2 s. Also, the “irradiation time to complete the 1PE photolysis reaction” value in series [3] (365 nm) was “less than 1 min”. In series [4], this compound registered a ε365 of 4900 M^–1 cm^–1 and a λmax of 358 nm.

For the compound `Cc1ccc(-c2cc(COc3cc(CCN)ccc3O)nc3c(C#N)c(O)ccc23)cc1.O=C(O)C(F)(F)F` [3d, 2-(3-((8-Cyano-7-hydroxy-4-(p-tolyl)quinolin-2-yl)methoxy)-4-hydroxyphenyl)ethan-1-aminium 2,2,2-trifluoroacetate], the solubility entry in series [1] (pH 7.2) was “slightly lower solubility”; in series [1] (pH 7.2, aqueous buffer), 85 µM. Besides, the “τd (time constant of spontaneous hydrolysis in buffer in the dark at room temperature)” value in series [2] is on record as “nh (No hydrolysis (<5% detected after 7 days))”. Also, in series [3], the “t90% (time required to consume 90% of the starting material)” value is 76.7 s. Moreover, the ε365 in series [4] was found to be 4800 M^–1 cm^–1. Besides, in series [4], the λmax is 372 nm.

With `COc1cc(-c2cc(COc3cc(CCN)ccc3O)nc3c(C#N)c(O)ccc23)cc(OC)c1OC.O=C(O)C(F)(F)F` [3e, 2-(3-((8-Cyano-7-hydroxy-4-(3,4,5-trimethoxyphenyl)quinolin-2-yl)methoxy)-4-hydroxyphenyl)ethan-1-aminium 2,2,2-trifluoroacetate], the solubility in series [1] (pH 7.2, aqueous buffer) is above 100 µM. In addition, the “τd (time constant of spontaneous hydrolysis in buffer in the dark at room temperature)” value in series [2] is “nh (No hydrolysis (<5% detected after 7 days))”. Also, the “t90% (time required to consume 90% of the starting material)” value in series [3] is given as 188.7 s. In series [4], this compound showed a ε365 of 5210 M^–1 cm^–1 and a λmax of 372 nm.

Turning to `CCCN(CCc1cccs1)[C@@H]1CCc2c(cccc2OCc2cc(OC)c3ccc(O)c(C#N)c3n2)C1` [5c, (R)-7-Hydroxy-4-methoxy-2-(((6-(propyl(2-(thiophen-2-yl)ethyl)amino)-5,6,7,8-tetrahydronaphthalen-1-yl)oxy)methyl)quinoline-8-carbonitrile], in series [1] (pH 7.2, aqueous buffer), the solubility is above 100 µM. The “τd (time constant of spontaneous hydrolysis in buffer in the dark at room temperature)” value in series [2] is “nh (No hydrolysis (<5% detected after 7 days))”. Further, in series [3], the “t90% (time required to consume 90% of the starting material)” value turned out to be 143.9 s. In series [4], the ε365 is given as 2300 M^–1 cm^–1 and the λmax came to 343 nm.
